Assay results as given in patent US20240299299A1, “COMPOSITIONS AND METHODS FOR INCREASING THE EFFICACY OF IMMUNOTHERAPIES AND VACCINES” (The Regents of the University of Michigan, priority 2021, published 2024).

Assays:
OT-I CD8+ T cells [1] = experiment: In vitro central memory (Tcm) differentiation of OT-I CD8+ T cells activated with SIINFEKL peptide and IL-2 with metabolites; type: cell-based, mice; conditions: day 8; metabolite-supplemented medium (arginine 3 mM, 3-methylhistidine 3 mM, DHB 100 μM, sodium ferulate 100 μM)
Description: (§1) FIG. 2: a) OT-I CD8+ T cells were cultured with different metabolites in vitro as indicated, b,c) shown is the frequency of CD44^+CD62L^+ Tcm CD8+ T cells on day 8. d) OT-I CD8+ T cells were activated with α-CD3/α-CD28 antibodies in presence of metabolites as indicated and shown is the Tcm CD8+ T cells on day 7. Data represent the mean±s.e.m. (n=5).
(§2) Splenocytes from OT-I mice were obtained aseptically. The cells were cultured in 96-well plates (1×10^5 cells per well). For Tcm differentiation study, cells were activated with SIINFEKL peptide (4×10^−9M) in the presence of various metabolites (arginine: 3 mM; 3-methylhistidine: 3 mM; N-acetylneuraminate: 100 μM; disodium sebacate: 100 μM; DHB: 100 μM; pantothenate: 100 μM; γ-aminobutyric acid: 100 μM; glycerol: 100 μM; AICAR: 100 μM, sodium ferulate: 100 μM) for 3 days. Then cells were washed three times with T-cell medium and further cultured with IL-2 (10 ng ml^−1; PeproTech) in the presence of metabolites for 5 days. The cells were then washed twice and re-activated with SIINFEKL peptide (10 μM) for 2 h. The suspension cells were collected, blocked with CD16/32 antibody and stained with the fixable viability dye eFluor 450, FITC-CD44 rat anti-human/mouse and PE-CD62L monoclonal antibody. To test if the central memory CD8+ T cells differentiation is dependent on dendritic cells, CD8 T cells isolated from the spleen in OT-I mice were incubated in the 96-well plate, which was precoated with anti-hamster IgG antibody. […] (1 μg mL^−1) and IL-2 (100 U mL^−1) were added into each well in the presence of 3-methylhistidine (3 mM), DHB (100 μM), or sodium ferulate (100 μM) for 2 days. Then cells were washed for three times to remove α-CD3/α-CD28 antibodies and further incubated with metabolites and IL-2 (10 ng ml^−1) for 5 days. Thereafter, cells were collected for central memory CD8^+ T cells analysis. For CD8^+ T cells survival study, cells were activated with antigen peptide as above, following with thoroughly washing, and incubation in presence of IL-2 for 2 days. Metabolites were added during this incubation (arginine: 3 mM, 1 mM; 3-methylhistidine: 3 mM, 1 mM, 500 μM, 100 μM; N-acetylneuraminate: 100 μM; disodium sebacate: 100 μM; DHB: 100 μM, 50 μM, 20 μM; pantothenate: 100 μM; γ-aminobutyric acid: 100 μM; glycerol: 100 μM; AICAR: 100 μM). Then cells were further incubated in absence of both IL-2 and metabolites for 36 h to induce the apoptosis/dead. For Tcf1^+CD8^+ differentiation study, cells were activated with antigen peptide as above, followed by thoroughly washing, and incubation with metabolites in presence of IL-2 for 3 days. […] Tcf1^+CD8^+, CD44^+CD62L^+CD8^+ and survival (stained with Annexin V-APC and PI) T cells were detected via flow cytometry.

OT-I CD8+ T cells [2] = experiment: Tcm differentiation of isolated OT-I CD8+ T cells activated with α-CD3/α-CD28 in the absence of dendritic cells; type: cell-based, mice; conditions: α-CD3/α-CD28 activation; 3-methylhistidine 3 mM, DHB 100 μM; day 7
Description: as §1
Splenocytes from OT-I mice were obtained aseptically. The cells were cultured in 96-well plates (1×10^5 cells per well). For Tcm differentiation study, cells were activated with SIINFEKL peptide (4×10^−9M) in the presence of various metabolites (arginine: 3 mM; 3-methylhistidine: 3 mM; N-acetylneuraminate: 100 μM; disodium sebacate: 100 μM; DHB: 100 μM; pantothenate: 100 μM; γ-aminobutyric acid: 100 μM; glycerol: 100 μM; AICAR: 100 μM, sodium ferulate: 100 μM) for 3 days. Then cells were washed three times with T-cell medium and further cultured with IL-2 (10 ng ml^−1; PeproTech) in the presence of metabolites for 5 days. The cells were then washed twice and re-activated with SIINFEKL peptide (10 μM) for 2 h. The suspension cells were collected, blocked with CD16/32 antibody and stained with the fixable viability dye eFluor 450, FITC-CD44 rat anti-human/mouse and PE-CD62L monoclonal antibody. […] Tcf1^+CD8^+, CD44^+CD62L^+CD8^+ and survival (stained with Annexin V-APC and PI) T cells were detected via flow cytometry.

OT-I CD8+ T cells [3] = experiment: Tcf1+CD8+ differentiation of OT-I T cells with metabolites; type: cell-based, mice; conditions: day 6
Description: FIG. 3: a) OT-I CD8+ T cells were cultured with different metabolites in vitro as indicated, b,c) shown are the frequency of the Tcf1^+CD8+ T cells and the representative flow cytometry plots on day 6. Data represent the mean±s.e.m. (n=5).
as §2, with “days.” for “days. Metabolites were added during this incubation (arginine: 3 mM, 1 mM; 3-methylhistidine: 3 mM, 1 mM, 500 μM, 100 μM; N-acetylneuraminate: 100 μM; disodium sebacate: 100 μM; DHB: 100 μM, 50 μM, 20 μM; pantothenate: 100 μM; γ-aminobutyric acid: 100 μM; glycerol: 100 μM; AICAR: 100 μM). Then cells were further incubated in absence of both IL-2 and metabolites for 36 h to induce the apoptosis/dead. For Tcf1^+CD8^+ differentiation study, cells were activated with antigen peptide as above, followed by thoroughly washing, and incubation with metabolites in presence of IL-2 for 3 days.”

OT-I CD8+ T cells [4] = experiment: CD8+ T cell survival upon IL-2 withdrawal (Annexin V/PI); type: cell-based, mice; conditions: dependent on the dose of metabolites
Description: FIG. 4: a) OT-I CD8+ T cells were cultured with different metabolites in vitro as indicated, b,c) shown are the level of survival CD8+ T cells (Annexin V^−PI^−) as well as the representative flow cytometry plots on day 5.5. Data represent the mean±s.e.m. (n=5).
as §2, with “days.” for “days. Metabolites were added during this incubation (arginine: 3 mM, 1 mM; 3-methylhistidine: 3 mM, 1 mM, 500 μM, 100 μM; N-acetylneuraminate: 100 μM; disodium sebacate: 100 μM; DHB: 100 μM, 50 μM, 20 μM; pantothenate: 100 μM; γ-aminobutyric acid: 100 μM; glycerol: 100 μM; AICAR: 100 μM). Then cells were further incubated in absence of both IL-2 and metabolites for 36 h to induce the apoptosis/dead. For Tcf1^+CD8^+ differentiation study, cells were activated with antigen peptide as above, followed by thoroughly washing, and incubation with metabolites in presence of IL-2 for 3 days.”

[5] = test system: CT26 colon carcinoma cells; experiment: CT26 tumor model, intratumoral metabolites plus α-PD-1; type: in vivo, BALB/c mice
Description: FIG. 5: a) Therapeutic treatment regimen. BALB/c mice were s.c. inoculated with 1.5×10^5 CT26 colon carcinoma cells. The candidate metabolites were injected intratumorally every other day, 100 μg α-PD-1 was i.p. injected on days 9, 12, 16 and 20. b) Average tumor growth, c) individual tumor growth, and d) overall Kaplan-Meier survival are shown. Data represent the mean±s.e.m. (n=5).
(§3) Animals were cared for following the federal, state and local guidelines. All work conducted on animals was in accordance with and approved by the Institutional Animal Care and Use Committee (IACUC). Female (6-8 weeks old) BALB/c mice from Jackson Laboratory were inoculated with 1.5×10^5 CT26 cells per mouse on the right flank by s.c. injection. Tumor-bearing mice were randomly assigned to different treatment groups. For intratumoral injection study, the mice were injected with 3-methylhistidine (dose: 1 mg per mouse), sodium hippurate (dose: 1 mg per mouse), disodium sebacate (dose: 1 mg per mouse), sodium ferulate (dose: 1 mg per mouse), or DHB (dose: 0.5 mg per mouse) in 40 μL PBS buffer for every other day. The mice were i.p. injected with α-PD-1 antibody (100 μg per dose; clone RMP1-14, Bioxcell) on days 9, 12, 16 and 20 post tumor inoculation. For oral administration study, the mice were injected with 3-methylhistidine (dose: 3 mg per mouse), sodium hippurate (dose: 3 mg per mouse), disodium sebacate (dose: 3 mg per mouse), sodium ferulate (dose: 3 mg per mouse), or DHB (dose: 2.4 mg per mouse) in PBS buffer for 3 times every 4 days. α-PD-1 was injected on days 10, 14, 18 and 22. The tumor size was measured, and the tumor volume was calculated as ½×(length×width^2). Tumor-bearing mice were euthanized when the tumor size reached 1.5 cm in any diameter or when the animals became moribund with severe weight loss (>20%) or tumor ulceration.

[6] = test system: CT26 colon carcinoma cells; experiment: CT26 tumor model, orally administered metabolites plus α-PD-1; type: in vivo, BALB/c mice; conditions: oral gavage 3 times every 4 days (DHB 2.4 mg, 3-methylhistidine 3 mg per mouse) plus α-PD-1 i.p.
Description: FIG. 6: a) Therapeutic treatment regimen. BALB/c mice were s.c. inoculated with 1.5×10^5 CT26 colon carcinoma cells. The candidate agents were orally administrated 3 times every 4 days, 100 μg α-PD-1 was injected i.p. on days 10, 14, 18 and 22. b) Average tumor growth, c) individual tumor growth. Data represent the mean±s.e.m. (n=4-5).
as §3, with “For oral administration study, the mice were injected with 3-methylhistidine (dose: 3 mg per mouse), sodium hippurate (dose: 3 mg per mouse), disodium sebacate (dose: 3 mg per mouse), sodium ferulate (dose: 3 mg per mouse), or DHB (dose: 2.4 mg per mouse) in PBS buffer for 3 times every 4 days. α-PD-1 was injected on days 10, 14, 18 and 22.” left out, “Tumor-bearing mice were euthanized when the tumor size reached 1.5 cm in any diameter or when the animals became moribund with severe weight loss (>20%) or tumor ulceration.” left out

[7] = test system: activated T cells, MC38, B16F10, and CT26 tumor cells; experiment: In vitro cell viability of DHB at various concentrations; type: cell-based; conditions: concentration below 1 mM
Description: (§4) FIG. 7: a-d) In vitro cell viability of DHB at various concentrations in activated T cells, MC38, B16F10, and CT26 tumor cells. e) BALB/c mice were s.c. inoculated with 1.5×10^5 CT26 colon carcinoma cells. DHB (2.4 mg per dose) or 3-methylhistidine (3 mg per dose) was i.p. injected 3 times every 4 days, 100 μg α-PD-1 was i.p. injected on days 11, 15, and 20. Shown is the average tumor growth. Data represent the mean±s.e.m. (n=4-5).

[8] = test system: CT26 colon carcinoma cells; experiment: CT26 tumor model, metabolite monotherapy i.p. without α-PD-1; type: in vivo, BALB/c mice; conditions: monotherapy without α-PD-1 IgG; i.p. DHB 2.4 mg or 3-methylhistidine 3 mg per dose
Description: as §4

[9] = test system: CT26 colon carcinoma cells; experiment: CT26 tumor model, oral prodrug #717 plus α-PD-1; type: in vivo, BALB/c mice; conditions: 2 mg per dose every other day starting day 8
Description: FIG. 10: BALB/c mice were s.c. inoculated with 1.5×10^5 CT26 colon carcinoma cells. The prodrug #717 (2 mg per dose) were orally administrated every other day starting day 8. 100 μg α-PD-1 was injected i.p. on days 11 and 16. Shown is the average tumor growth. Data represent the mean±s.e.m. (n=5).

SMILES | differentiation of CD44+CD62L+ central memory CD8+ T cells (OT-I CD8+ T cells [1]) | induction of central memory CD8+ T cells in the absence of dendritic cells (OT-I CD8+ T cells [2]) | frequency of Tcf1+CD8+ T cells (OT-I CD8+ T cells [3]) | survival of activated CD8+ T cells (OT-I CD8+ T cells [4]) | systemic antitumor efficacy of α-PD-1 treatment and CT26 tumor growth ([5]; intratumoral every other day (DHB 0.5 mg, 3-methylhistidine 1 mg per mouse) plus α-PD-1 i.p.) | tumor-free mice on day 70 ([5]; intratumoral metabolite plus α-PD-1 i.p.) | efficacy of α-PD-1 treatment [6] | cell toxicity [7] | tumor growth in vivo [8] | synergy with α-PD-1 against tumor growth in vivo [9]
O=C(O)c1ccc(O)c(O)c1 [DHB, 3,4-dihydroxybenzoate] | significantly increased the differentiation | can also induce central memory CD8^+ T cells | increased the frequency | significantly increased the survival | improved the systemic antitumor efficacy of α-PD-1 treatment and slowed down the CT26 tumors growth | 80% | improved the efficacy of α-PD-1 treatment | low cell toxicity | did not inhibit the tumor growth | 
COC(=O)[C@H](Cc1cncn1C)NC(=O)OC(C)(C)C [Prodrug #717, methyl Na-(tert-butoxycarbonyl)-Np-methyl-L-histidinate] |  |  |  |  |  |  |  |  |  | did not synergize
